Entries after “also recorded” stand apart in the source; their conditions may differ.
Key:
HeLa cells = assay: Alkaline Comet assay, accumulation of DNA damage; format: cell-based; details: for Amount of DNA damage (% DNA in tail) in combination with Tpc compared to only Tpc: 10 μM Tpc + compound; for DNA in tail: 1 h; for Effect of the compound alone on the integrity of DNA: compound alone in concentrations up to 1 mM, compared to untreated or 1% DMSO
Description: We studied the effect of Tdp1 inhibitors 5f and 6d on the accumulation of DNA damage by single-cell gel electrophoresis (Comet assay). […] This method has proven to be a simple, fast, and a quite sensitive way to detect DNA damage at the level of a single cell, allowing one to analyze almost any eukaryotic cell culture. Several analysis options allow one to visualize various types of DNA damage: single- and double-stranded breaks and alkaline-labile sites. This allows this method to be widely used in fundamental studies of DNA damage and repair and in testing the genotoxicity of new chemical and pharmaceutical drugs in vitro and in vivo [51, 52]. To study potential drugs, the alkaline version of the method (pH > 13) proposed by Singh and co-authors is widely used. This method allows the detection of all types of DNA damage with high sensitivity. In cells with a large amount of DNA damage, the structural organization and integrity of DNA are disrupted, which leads to its relaxation and/or fragmentation. As a result, cellular DNA in an electric field gives the observed objects the appearance of a “comet”.
Before studying the effect of Tdp1 inhibitors on the accumulation of DNA damage, it was necessary to find out how long the generation of DNA damage by Tpc and their repair take place in HeLa cells. To do this, cell culture was treated with Tpc at 1, 10, and 100 μM concentrations for 30 min, 1, 2, and 3 h and the level of damage to individual cells was monitored by Comet assay. It was shown that Tpc caused the greatest amount of damage after 30 minutes’ treatment. After this time, the repair systems began to correct these lesions and as a result, after 3 h most of them have been eliminated (Figure S9). […] The level of DNA damage at this point was enough to be detected, the data were reproducible, and can be evaluated by the Comet assay. The effect could be enhanced by the tested compounds without leading to cell death. It was important for us to see this enhancement in the presence of our compounds.
HeLa cell culture was grown in a 24-well plate to a concentration of 0.05 million/mL, then treated with the tested compounds and incubated for 1 h. To obtain a cell suspension, the cells were treated with trypsin (30 µL in each well for 5 min at 37 °C), and then 200 µL of PBS + 10% FBS were added to each well.
The resulting cell suspension (50 µL) was mixed with 250 µL of a 1% solution of molten low melting agarose (CertifiedTM LMAgarose; BIO-RAD), 250 µL of this mixture was transferred to the slides pre-coated with a 1% normal melting agarose (Agarose; Helicon), and left for several minutes at 4 °C to solidify. The resulting slides were incubated in a lysing solution (2.5 M NaCl, 100 mM EDTA, 10 mM Tris base, 1% Triton, 5% DMSO, pH 10.0) for an hour at 4 °C. Then the slides were immersed in an electrophoretic buffer (300 mM NaOH, 1 mM EDTA, pH > 13) for 45 min at 4 °C. Electrophoresis was performed at 20 V, 450 mA for 10 min while cooling on ice. After that, the slides were immersed 2 times for 5 min in 0.4 M Tris-HCl pH 7.5 solution for neutralization, washed twice with cold water, and stained with SYBR Green I (excitation maximum at 497 nm, emission maximum at 520 nm; Thermo Fisher Scientific KK).
The images were obtained using a CELENA © S digital microscope (Logos Biosystems, Inc., Annandale, VA, USA) and analyzed with Comet analysis software (Trevigen, Inc., Gaithersburg, MD, USA. In all experiments, 2 slides were evaluated for each sample by counting at least 200 cells on the glass. As a parameter for measuring the level of DNA damage, the median value of the percentage of DNA in the tail was chosen (% Tail DNA = 100 × the intensity of DNA fluorescence in the tail of the comet/the intensity of fluorescence of the total DNA of the comet).

[1] = system: mice ascitic Krebs-2 carcinoma; assay: Antitumor effect of topotecan with compounds in vivo, ascitic Krebs-2 carcinoma model; details: C57Bl/6 mice; for Tumor mass (ascites weight) and number of tumor cells, combination with Tpc compared to only Tpc: Tpc 1 mg/kg + compound 100 mg/kg i/p once on day 4, 6d p = 0.0018
Description: The effect of compounds 5f, 6c and 6d on the effectiveness of Tpc was studied in vivo on a mice ascitic Krebs-2 carcinoma model. Krebs-2 carcinoma can be transplanted into mice of various genetic constitutions. […] This model combines the advantages of in vitro and in vivo approaches to study the cytotoxic effects of compounds, since ascites cells grow in the environment of the body (in vivo), and intraperitoneal administration of the drug ensures its direct contact with tumor cells (in vitro), bypassing absorption, delivery to the tumor, possible transformations, etc.
During the experiment, mice were injected intraperitoneally with 2 × 10^6 ascites cells, after that a liquid ascites tumor grew at the site of inoculation.
The effect of drugs on the tumor was assessed at the end of the experiment by the weight of the ascitic tumor (the difference in the weight of the mouse with the tumor and after tumor removal), as well as by the number of tumor cells in the ascites.
Three- to four-month-old male and female C57Bl/6 mice (19–21 g) from the breeding colony of the Institute of Cytology and Genetics, SB RAS, Novosibirsk, Russia, were used in the study. The animals were kept on sawdust in plastic cages of 5–7 mice per cage with free access to ground food (“Laboratorkorm”, Moscow, Russia) and tap water. All procedures with the mice were performed in accordance with the international rules for experiments on animals [European Communities Directive (86/609 EEC)].
The experimental tumor model was transplantable Krebs-2 carcinoma obtained from the cell depository of the Institute of Cytology and Genetics SB RAS (Novosibirsk, Russia) and was maintained in mice as a transplanted tumor. Krebs-2 was obtained from epithelial cells of the abdominal wall of a mouse. Krebs-2 carcinoma is nonspecific in its host requirements and can be grafted into mice with any genetic context. With intraperitoneal inoculation, it forms an ascites form.
The antitumor effect was assessed by the weight of the ascites and by the number of tumor cells in ascites. The weight of Krebs-2 ascites was assessed by the difference in the weight of mice before and after the removal of ascites. The number of tumor cells in ascites was determined using a hemocytometer Goryaev camera. In autopsied mice, the weights of liver, lung, heart, kidneys, and spleen were assessed as well as the tumor and body weights.
The animals were treated once in total dose of Tpc 1 mg/kg and Tdp1 inhibitor (5f, 6c or 6d) 100 mg/kg. We started the treatment on the fourth day after the tumor was inoculated, with the expectation that it had just begun to form. […] The animals were euthanized eight days after the transplantation and the compound effect on mice was evaluated by measuring the tumor weight and number of tumor cells in ascites.

[2] = compound 10 μM + Topotecan 10 μM
[3] = compound 50 μM + Topotecan 10 μM
[4] = compound 200 μM + Topotecan 10 μM

SMILES | Amount of DNA damage (% DNA in tail) in combination with Tpc compared to only Tpc (HeLa cells) | DNA in tail (HeLa cells; [2]) [%] | DNA in tail (HeLa cells; [3]) [%] | DNA in tail (HeLa cells; [4]) [%] | Effect of the compound alone on the integrity of DNA (HeLa cells) | Tumor mass (ascites weight) and number of tumor cells, combination with Tpc compared to only Tpc [1] | Reduction of the topotecan dose required to produce a serious level of DNA damage (HeLa cells; Tpc 1 μM + 6d 5 μM similar to only Tpc 10 μM) [times] | Tumor mass (ascites weight) and number of tumor cells, compound alone ([1]; compound 100 mg/kg i/p once on day 4, 100 mg/kg)
O[C@@H]1[C@H](O)[C@@H](COC(c2ccccc2)(c2ccccc2)c2ccccc2)O[C@H]1n1cnc2c(NC(c3ccccc3)(c3ccccc3)c3ccccc3)ncnc21 [compound 5f] | did not significantly differ | 37±3 | 40±3 | 42±4 | did not affect the integrity of DNA | no sensitizing effect; also recorded: did not result in a reliable decrease |  | 
O=C(OC[C@H]1O[C@@H](n2cnc3c(Cl)nc(F)nc32)[C@H](OC(=O)c2ccccc2)[C@@H]1OC(=O)c1ccccc1)c1ccccc1 [compound 6c, 2-Fluoro-6-chloro-9-(2,3,5-tri-O-benzoyl-β-D-ribofuranosyl)purine] |  |  |  |  |  | did not obtain the sensitizing effect; also recorded: did not result in a reliable decrease |  | 
O=C(OC[C@H]1O[C@@H](n2cnc3c(Cl)nc(Cl)nc32)[C@H](OC(=O)c2ccccc2)[C@@H]1OC(=O)c1ccccc1)c1ccccc1 [compound 6d, 2,6-dichloro-9-(2,3,5-tri-O-benzoyl-β-D-ribofuranosyl)purine] | increased the amount of DNA damage | 50±2 | 65±6 | 71±4 | did not affect the integrity of DNA; also recorded: does not cause DNA damage by itself | significant decrease; also recorded: synergistic decrease of tumor size | 10 | did not affect this parameter; also recorded: did not affect tumor growth
